# Test results as given in US7423020B2, “Treatment of mood disorders by administration of SMR1” (Institut Pasteur, priority 2001, dated 2008).
# Assays:
# [1] = target: T1, NEP (Rattus norvegicus, UniProt P07861); assay: Met-enkephalin degradation by rat spinal cord slices, RIA assay; type: biochemical; details: 10 μM; fresh spinal cord slices; 20 min at 25° C.; 10 μM Met-enkephalin
# T1 construct: incubations of membrane and fresh tissue slice preparations from nervous tissues; from tissue; host or cells: rat spinal cord (dorsal zone), fresh slices or 100 000 x g membrane fraction
# T1 sequence (P07861 1-750): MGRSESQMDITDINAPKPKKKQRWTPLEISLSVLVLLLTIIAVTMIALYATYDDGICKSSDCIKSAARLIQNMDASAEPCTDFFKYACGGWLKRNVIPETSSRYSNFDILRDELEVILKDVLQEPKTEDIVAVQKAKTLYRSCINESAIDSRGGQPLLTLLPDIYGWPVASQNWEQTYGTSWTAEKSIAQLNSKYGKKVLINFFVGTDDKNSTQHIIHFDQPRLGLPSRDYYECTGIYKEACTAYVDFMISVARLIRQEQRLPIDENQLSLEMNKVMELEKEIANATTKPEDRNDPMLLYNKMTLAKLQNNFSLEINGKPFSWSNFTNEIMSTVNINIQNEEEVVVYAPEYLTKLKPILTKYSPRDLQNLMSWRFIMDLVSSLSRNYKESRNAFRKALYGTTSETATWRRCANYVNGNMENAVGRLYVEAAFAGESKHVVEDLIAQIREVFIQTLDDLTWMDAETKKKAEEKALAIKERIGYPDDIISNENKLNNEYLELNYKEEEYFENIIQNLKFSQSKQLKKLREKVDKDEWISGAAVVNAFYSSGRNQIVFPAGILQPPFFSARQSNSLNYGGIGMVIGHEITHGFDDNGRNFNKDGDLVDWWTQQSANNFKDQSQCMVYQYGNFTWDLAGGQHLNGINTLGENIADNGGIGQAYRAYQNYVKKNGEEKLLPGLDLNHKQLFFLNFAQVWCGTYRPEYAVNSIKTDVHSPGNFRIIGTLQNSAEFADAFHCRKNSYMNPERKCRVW
# Protocol: (§1) For the experiments of analysis of the NEP peptidase activity, an ex vivo model using incubations of membrane and fresh tissue slice preparations from nervous tissues that are known to be appropriate for exploring NEP peptidase activity: i.e. the dorsal zone of rat spinal cord, was first developed. […] (NEN, 12.5-25 nM) were used.
# (§2) The objective was to measure the NEP-specific endoproteolysis of these substrates.
# [2] = target: T1, NEP; assay: Met-enkephalin hydrolysis by rat spinal cord slices and membrane preparations, RP-HPLC analysis; type: biochemical; details: for inhibition of enkephalinase activity over the time of incubation: 37° C., from 10 to 30 min, 10 μM Phosphoramidon, 1 μM Thiorphan
# Protocol: The organs are rapidly removed, dissected on ice, freed of nerve fibers and of adipose tissues and then washed in cold oxygenated glucose-and bicarbonate-containing Krebs Ringer (KRBG) solution, whose composition is the following: 120 mM NaCl-5 mM KCl-1.2 mM KH2PO4-27.5 mM NaHCO3-2.6 mM CaCl2-0.67 mM MgSO4-5.9 mM glucose. The slices of tissues are prepared either manually with the aid of a scalpel (1-2 mm thick), or mechanically with the aid of a “Tissue Chopper” (1 mm thick). Slices are then dispersed into reaction tubes where they are subjected to three successive washes in ice-cold oxygenated KRBG. […] The organs dissected out and washed in ice-cold KRBG are homogenized at 4° C. in 10 volumes (vol./wt.) of 50 mM Tris/HCl buffered at pH 7.2, using a Teflon-glass homogenizer (3×5 sec.). A first centrifugation of 5 min. at 1000×g and 4° C. makes it possible to remove the tissular debris and the nuclei in the pellet. A second centrifugation of the supernatant at 100 000×g and 5° C. concentrates the membrane fraction into the pellet, which will be superficially washed three times with cold Tris/HCl buffer and resuspended in fresh buffer using a Kontes homogenizer, aliquoted and stored at -80° C. while waiting to be used as enzyme source, at least until three months. For the experiments of analysis of the NEP peptidase activity, an ex vivo model using incubations of membrane and fresh tissue slice preparations from nervous tissues that are known to be appropriate for exploring NEP peptidase activity: i.e. the dorsal zone of rat spinal cord, was first developed. The metabolism rate of the NEP-sensitive peptides was measured using the both NEP substrates involved in the signaling of the nociceptive response: the neuropeptides Met-enkephalin and Substance P. […] (NEN, 12.5-25 nM) were used. The objective was to measure the NEP-specific endoproteolysis of these substrates. […] Furthermore, for studying the functional role of […] NO: 1), the reaction was carried out in the presence of the SMR1-peptide alone or combined with specific inhibitors of membrane peptidases which could inactivate the […] NO: 1) peptide by cleaving its C-terminal end: an inhibitor of carboxypeptidase […], 10 μM, Sigma) and an inhibitor of dipeptidylpeptidase IV (DPPIV inhibitor, 10 μM, Roche). […] Samples are kept at -30° C. until the measurement of their intact substrate and its metabolites content. The membrane preparations are preincubated in 50 mM Tris/HCl buffered at pH 7.2 and containing 10 μM Bestatin, at 25, 30 or 37° C. in constantly shaken water, in the presence or in the absence of NEP inhibitor. […] Samples are kept at -30° C. until the measurement of their intact substrate and its metabolites content. HPLC is a highly resolutive procedure that allows one to isolate, and detect by coupled spectrophotometer analysis, the non-radioactive peptides whose concentration is at least 1 to 10 μM. The C-18 RP-HPLC is based on the same principle as the C-18 Sep-Pak cartridge. The chromatographic analyses were used to study the hydrolysis of Met-Enkephalin, that were done on a C-18 LUNA analytical column (150×4.6 mm inner diameter, AIT) packed with 5 μm-diameter beads. […] Their identification and relative quantification (peak height) are checked by continuously monitoring the UV absorbance at 254 nm of column outflow. In first series of experiment, the slices and the membrane preparations of spinal cord tissues were incubated at 30° C. in a 1 ml final volume of KRBG, and at 37° C. in a 0.25 ml final volume of Tris/HCl 50 mM, pH 7.2, respectively.
# [3] = target: T1, NEP; assay: 3H-Substance P hydrolysis by rat spinal cord slices; type: biochemical; details: 25° C., over 30 min incubation, read-out: inhibition of Substance P degradation
# Protocol: as §1, §2
# The C-18 Sep-Pak cartridges (Waters) were used to analyze the hydrolysis of the radiolabeled peptides: they separate compounds according to their differences in polarity. This solid-phase extraction procedure allows isolating the substrate from its metabolites, since the hydrophobic character of the peptide metabolites is reduced or even lost compared to the intact peptide substrate.
# The radioactivity of eluted and isolated compounds is determined by liquid scintillation spectrometry.
# [4] = tested on: male Wistar/AF EOPS rats; assay: Behavioral despair test (forced swimming); type: in vivo, rat; details: first 5 minutes, n = 10
# [5] = tested on: male Wistar/AF EOPS rats; assay: Behavioral despair test (forced swimming); type: in vivo, rat
# Protocol: Forty male Wistar/AF EOPS rats (Iffa-Credo Breeding Centre, 69-St-Germain sur l'Arbresle, France), weighing 300 to 320 g, were used. On arrival, the rats were labelled and distributed randomly in pairs into type F polycarbonate cages (48×27×20 cm, U.A.R., 91-Epinay-Sur-Orge, France). The animals were stabled in an air-conditioned animal house, at a temperature of 22-24° C. The rats were given food (M25 croquettes, Ets Pietrement, 77-Provins, France) and drink ad libitum and were subjected to a 12-hour light-darkness cycle.
# After one week of familiarization with the laboratory conditions, the rats were weighed and distributed randomly into 3 treatment groups (n=12). The rats of the different groups will all be handled in the same way and under the same conditions.
# The behavioral despair test takes place over two sessions: • a 15-minute test session; • a 5-minute retest session, performed 24 hours later.
# During the test session, the rat was subjected to forced swimming in a Plexiglas cylinder (20 cm in diameter and 50 cm in height, containing 25 cm of water at 25° C.) and its behavior was recorded over 15 minutes. At the end of the test, the rat was removed from the water, dried gently, treated and then returned to its dwelling cage.
# During the retest, 24 hours later, the rat was again placed in the water and its behavior was recorded over 5 minutes.
# The recorded variables are the period of immobility during the first 5 minutes of both the test and the retest.
# The peptide FG-005 (SMR1-QHNPR) (SEQ ID NO: 1) was suspended at a rate of 500 μg per 5 ml of 0.01N acetic acid, and then diluted with PBS to be administered at doses of 50 and 100 μg/kg via the i.v. route into the dorsal caudal vein of the rat, immediately after the test and 300 and 5 minutes before the retest the following day.
# A bilateral probability paired t test was used to compare the two periods of immobility of the test with those of the retest in each of the groups. The results are expressed as an average ±standard error of mean (SEM)(FIG. 4). The statistical and graphical processing was performed using Statview5 and DeltaGraph® Pro 3.5 software.
Structure (SMILES),protection of Met-enkephalin from degradation (RIA) [1] [%],"inhibition at 10 µM ([2]; 10 μM, membrane preparations and fresh tissue slices, 10 min incubation at 37° C., read-out: inhibition of Met-enkephalin hydrolysis (enkephalinase activity)) [%]","inhibition of Met-enkephalin degradation (RP-HPLC) ([2]; 10 μM, spinal cord slices, 20 min at 25° C., Met-enkephalin 10 μM)",inhibition of enkephalinase activity over the time of incubation [2],inhibition at 10 µM [3] [%],"inhibition at 1 µM ([2]; 1 μM, membrane preparations and fresh tissue slices, 10 min incubation at 37° C., read-out: inhibition of Met-enkephalin hydrolysis (enkephalinase activity)) [%]","inhibition at 10 µM ([2]; 10 μM, spinal cord slices, 20 min at 25° C., Met-enkephalin 10 μM, read-out: inhibition of Met-enkephalin degradation (RP-HPLC)) [%]","Immobility period, Retest ([4]; 0.5 mg/kg i.p., 1440, 300, 30 min before the retest)","Immobility period, Test ([4]; 8-OH-DPAT group, 0.5 mg/kg i.p., test session before any treatment)","change of period of immobility, retest compared with test ([5]; 8-OH-DPAT treated rats)","overall effect in the behavioral despair test ([5]; FG-005 50 and 100 μg/kg i.v., 8-OH-DPAT as reference substance)"
CC(C)C[C@H](NP(=O)(O)O[C@@H]1O[C@@H](C)[C@H](O)[C@@H](O)[C@H]1O)C(=O)N[C@@H](Cc1c[nH]c2ccccc12)C(=O)O [Phosphoramidon],96,80 to 90,complete inhibition,almost complete inhibition,60 to 65,–,–,–,–,–,–
O=C(O)CNC(=O)C(CS)Cc1ccccc1 (centres unmarked) [Thiorphan],100,–,–,almost complete inhibition,60 to 65,80 to 90,80,–,–,–,–
"CCCN(CCC)C1CCc2cccc(O)c2C1 (centres unmarked) [8-OH-DPAT, reference compound]",–,–,–,–,–,–,–,31.60 ± 11.51,109.20 ± 11.43,significantly reduce their period of immobility,significant anti-resignation effect
